Patent US20090233868A1, “Small antiviral peptides against hepatitis C virus” (priority 2005, published 2009)
Where no end group is shown, it is not given here.

How the values were obtained:
[1] = test system: HCV IRES mediated translation; test: In vitro translation of uncapped HCV-IRES-Luc monocistronic RNA in rabbit reticulocyte lysate; assay type: biochemical, hepatitis C virus; conditions: RRL; for IC50: uncapped HCV IRES-Luc RNA, data not shown, read-out: IC50 for inhibition of HCV IRES mediated translation
[2] = test system: cap-dependent translation; test: In vitro translation of capped Luciferase RNA in RRL; assay type: biochemical, rabbit; conditions: 15, 30, 60 μM peptide; FIG. 5C
[3] = test system: HCV IRES mediated translation; test: In vitro translation of capped HCV bicistronic RNA in RRL; conditions: 15, 30, 60 μM peptide; FIG. 5D
[4] = test system: IRES mediated translation of hepatitis A virus; assay type: biochemical
[5] = test system: Polio virus IRES function; assay type: biochemical; conditions: at higher concentration (15, 30, 60 μM tested); FIG. 5E
[6] = test system: Huh7 cells; test: Internalization of fluorescein labeled hexa-arginine-tagged peptides; assay type: cell-based; conditions: fluorescein tagged peptide, 3 hours incubation; FIG. 6B
[7] = test system: HCV IRES mediated translation; test: HCV bicistronic construct luciferase assay in Huh7 cells with arginine-tagged peptides; assay type: cell-based, hepatitis C virus; conditions: 2 μM peptide, 4 hours or 6 hours
[8] = test system: HCV monocistronic replicon; test: HCV negative strand real time PCR in Huh7 cells harboring HCV monocistronic replicon; assay type: cell-based, hepatitis C virus
[9] = test system: HCV IRES RNA; test: UV-crosslinking assay with [32P] labeled HCV IRES RNA; assay type: binding, hepatitis C virus; conditions: 2 μM and 4 μM peptide; FIG. 6A

Substance | IC50 [1] [µM] | Translation inhibitory activity on HCV IRES-Luc RNA ([1]; 30 and 60 μM (FIG. 3C) or 15, 30 and 60 μM (FIG. 5A, 5B)) | Inhibition of capped-Luciferase RNA translation (cap-dependent) [2] | Inhibition of HCV IRES (Fluc) vs cap dependent (Rluc) translation of bicistronic RNA [3] | Inhibition of IRES mediated translation of hepatitis A virus [4] | Inhibition of Polio virus IRES function [5] | Internalization into Huh7 cells (fluorescence microscope) [6] | Inhibition of HCV IRES mediated translation over the control in Huh7 cells [7] | Decrease in levels of HCV negative strand RNAs compared to untreated cells ([8]; 4 μM peptide added at 0 and 12th hour, RNA at 24th hour) [%] | Inhibitory activity on HCV negative strand synthesis ([8]; 10 μM peptide, data not shown) | RNA binding activity of hexa-arginine tagged peptides (UV cross-linking) [9]
KYKETDL [LaR2C-N7] | ~40 | only slightly weaker than the 24-mer peptide | did not show significant inhibition | selective inhibition of HCV IRES mediated translation | failed to inhibit | significant inhibition |  |  |  |  | 
KYKETDLLILFKDDYFAKKNEERK [LaR2C] | 30 |  |  |  |  |  |  |  |  |  | 
RRRRRRKYKETDL [Arg-LaR2C-N7] |  |  |  |  |  |  | internalized inside Huh7 cells | up to 70% | ~50 | considerable increase in the inhibitory activity | showed RNA binding activity
